This is an account of results in US20250388602A1 (Genase Therapeutics B.V., priority 2022, published 2025).

The nature of series [1]: in vitro.
The target in a further series is CYP2C8 (Homo sapiens (Human), UniProt P10632). Kind of series: biochemical. Format: in vitro ADME. As to the method: (§1) CYP inhibition: Co-incubation of compounds with P450 enzyme-selective substrates was performed using pooled human liver microsomes (Cat. No. H0610, Xenotech), to determine their potential to cause drug-drug interactions. The assay was performed in duplicate. The formation of acetaminophen, 7′-hydoxycoumarin, hydrobupropion, N-desethylamodiaquine, 4′-hydroxydiclofenac, 4′-hydroxymephenytoin, 1′-hydroxybufuralol, 6″-hydroxychlorzoxazone were quantified as markers for CYP1A2, CYP2A6, […], CYP2C8, CYP2C9, CYP2C19, […], CYP2E1, respectively. CYP3A4 inhibition was measured using 2 substrates, measuring the formation of […] (3A4-T), and 1′-hydroxymidazolam (3A4-M). The incubation was carried out in 96 deep well plates each well containing: 179 μL of the master solution (0.2 mg/mL microsomes plus CYP substrate (see below for final substrate concentration and incubation time for the different CYP assays)) in 100 mM phosphate buffer and 1 μL of the compound working solution or vehicle. The final concentrations of the compounds in the assay was 30 μM when using a single dose or 0.1, 0.3, 1, 3, 10 and 30 μM for a dose response.
CYP2C8, sequence (P10632 whole entry): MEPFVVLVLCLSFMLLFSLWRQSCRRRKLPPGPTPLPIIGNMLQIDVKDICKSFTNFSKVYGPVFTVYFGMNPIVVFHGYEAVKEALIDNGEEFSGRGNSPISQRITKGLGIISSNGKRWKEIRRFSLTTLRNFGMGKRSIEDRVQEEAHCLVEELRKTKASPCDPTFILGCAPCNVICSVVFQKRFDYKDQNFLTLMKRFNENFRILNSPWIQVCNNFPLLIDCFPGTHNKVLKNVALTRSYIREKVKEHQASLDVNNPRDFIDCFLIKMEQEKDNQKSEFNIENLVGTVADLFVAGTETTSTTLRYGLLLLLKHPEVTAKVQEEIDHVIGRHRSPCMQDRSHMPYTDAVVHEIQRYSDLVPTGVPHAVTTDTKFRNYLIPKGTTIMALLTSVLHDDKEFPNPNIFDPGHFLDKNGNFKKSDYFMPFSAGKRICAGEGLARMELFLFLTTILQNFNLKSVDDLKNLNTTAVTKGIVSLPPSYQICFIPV
(§2) The incubation plate was placed into a water bath and pre-warmed at 37° C. for 5 minutes before the reactions were started by the addition of 20 μL of 10 mM NADPH solution and incubated at 37° C. for the time listed above. The reaction was stopped by addition of 1.5 volumes (300 μL) of cold ACN containing 3% formic acid and 200 nM tolbutamide, 200 nM aprozolam and 200 nM labalol. The plate was centrifuged at 3,220 g for 50 minutes and then 200 μL of the supernatant was transferred to the analysis plate for LC/MS/MS analysis. The respective metabolite formation from each probe substrate was compared with that observed for the solvent control incubations.

A further series addresses CYP2E1 (Homo sapiens (Human), UniProt P05181). As to the kind of experiment: biochemical. Format: in vitro ADME. As to the method: as §1, §2
In a further series the target is CYP2C19 (Homo sapiens (Human), UniProt P33261). Kind of series: biochemical. Format: in vitro ADME. As to the method:
as §1, §2

The target in the next series is CYP2B6 (Homo sapiens (Human), UniProt P20813). As to the kind of experiment: biochemical. Format: in vitro ADME. As to the method:
as §1, §2

The next series has as its target CYP3A4 (Homo sapiens (Human), UniProt P08684). Kind of series: biochemical. Format: in vitro ADME. As to the method: as §1, §2
A further series addresses CYP2A6 (Homo sapiens (Human), UniProt P11509). As to the kind of experiment: biochemical. Format: in vitro ADME. As to the method:
as §1, §2

The target in the next series is CYP2C9 (Homo sapiens (Human), UniProt P11712). Kind of series: biochemical. Format: in vitro ADME. As to the method:
as §1, §2

In a further series the target is CYP2D6 (Homo sapiens (Human), UniProt P10635). As to the kind of experiment: biochemical. Format: in vitro ADME. As to the method:
as §1, §2

The next series concerns Human CYPs. Kind of series: CYP inhibition panel in pooled human liver microsomes, overall statement. Format: in vitro ADME. Conditions: compared to C-analogue. As to the method:
as §1
The incubation plate was placed into a water bath and pre-warmed at 37° C. for 5 minutes before the reactions were started by the addition of 20 μL of 10 mM NADPH solution and incubated at 37° C. for the time listed above. […]

Series [2] can be described thus: in vitro. This is another data set of the same source.

CYP3A4, sequence (P08684 whole entry): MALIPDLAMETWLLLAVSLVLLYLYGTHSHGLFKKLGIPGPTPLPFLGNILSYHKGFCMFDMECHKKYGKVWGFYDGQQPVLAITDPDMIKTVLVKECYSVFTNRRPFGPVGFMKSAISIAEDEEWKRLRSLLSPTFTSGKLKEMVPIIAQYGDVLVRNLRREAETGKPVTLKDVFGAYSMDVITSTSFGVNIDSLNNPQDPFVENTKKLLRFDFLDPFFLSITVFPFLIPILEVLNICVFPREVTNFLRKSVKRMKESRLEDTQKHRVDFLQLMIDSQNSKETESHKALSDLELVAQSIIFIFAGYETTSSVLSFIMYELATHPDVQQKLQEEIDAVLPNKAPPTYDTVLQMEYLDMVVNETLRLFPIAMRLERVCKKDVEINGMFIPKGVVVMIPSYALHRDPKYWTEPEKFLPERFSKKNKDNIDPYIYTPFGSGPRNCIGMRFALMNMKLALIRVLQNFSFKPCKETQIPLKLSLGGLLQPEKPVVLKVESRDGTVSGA
CYP2C19, sequence (P33261 whole entry): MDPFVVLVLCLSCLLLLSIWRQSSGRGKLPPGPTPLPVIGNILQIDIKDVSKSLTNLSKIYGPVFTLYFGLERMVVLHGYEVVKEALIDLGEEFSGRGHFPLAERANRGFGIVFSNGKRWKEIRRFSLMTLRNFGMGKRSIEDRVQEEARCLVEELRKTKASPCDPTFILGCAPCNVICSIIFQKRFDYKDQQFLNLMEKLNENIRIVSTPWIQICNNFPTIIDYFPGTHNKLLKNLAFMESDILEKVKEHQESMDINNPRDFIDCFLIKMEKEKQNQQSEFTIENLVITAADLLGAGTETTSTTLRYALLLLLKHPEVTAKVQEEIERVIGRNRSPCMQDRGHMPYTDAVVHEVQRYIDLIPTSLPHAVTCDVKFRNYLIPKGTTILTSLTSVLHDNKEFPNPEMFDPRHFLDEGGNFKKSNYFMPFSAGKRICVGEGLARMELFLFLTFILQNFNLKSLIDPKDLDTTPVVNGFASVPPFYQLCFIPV
CYP2B6, sequence (P20813 whole entry): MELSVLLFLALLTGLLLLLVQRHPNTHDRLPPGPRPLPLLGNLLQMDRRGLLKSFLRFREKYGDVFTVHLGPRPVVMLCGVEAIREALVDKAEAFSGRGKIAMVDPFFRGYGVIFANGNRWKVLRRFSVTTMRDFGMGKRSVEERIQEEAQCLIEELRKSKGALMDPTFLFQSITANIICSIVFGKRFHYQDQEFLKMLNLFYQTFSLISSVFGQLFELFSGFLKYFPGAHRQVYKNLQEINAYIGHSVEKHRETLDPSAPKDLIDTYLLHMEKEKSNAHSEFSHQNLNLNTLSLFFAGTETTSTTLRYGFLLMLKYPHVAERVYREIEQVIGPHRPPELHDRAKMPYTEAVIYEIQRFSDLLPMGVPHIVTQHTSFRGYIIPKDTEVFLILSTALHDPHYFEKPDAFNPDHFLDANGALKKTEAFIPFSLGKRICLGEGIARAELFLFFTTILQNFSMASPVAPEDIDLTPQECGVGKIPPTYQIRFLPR
CYP2C9, sequence (P11712 whole entry): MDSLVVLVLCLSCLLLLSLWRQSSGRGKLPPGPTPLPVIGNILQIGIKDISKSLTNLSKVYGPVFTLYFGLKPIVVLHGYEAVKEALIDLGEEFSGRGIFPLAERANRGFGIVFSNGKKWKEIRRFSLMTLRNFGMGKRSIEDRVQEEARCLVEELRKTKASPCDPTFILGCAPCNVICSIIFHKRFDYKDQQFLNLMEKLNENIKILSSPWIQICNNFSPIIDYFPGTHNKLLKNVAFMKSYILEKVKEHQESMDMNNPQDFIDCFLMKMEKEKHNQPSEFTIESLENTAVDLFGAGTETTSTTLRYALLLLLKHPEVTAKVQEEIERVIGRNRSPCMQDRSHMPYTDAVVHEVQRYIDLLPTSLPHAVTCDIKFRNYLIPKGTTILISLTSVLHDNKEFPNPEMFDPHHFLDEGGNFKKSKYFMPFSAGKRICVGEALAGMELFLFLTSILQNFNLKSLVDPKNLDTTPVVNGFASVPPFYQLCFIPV
CYP2E1, sequence (P05181 whole entry): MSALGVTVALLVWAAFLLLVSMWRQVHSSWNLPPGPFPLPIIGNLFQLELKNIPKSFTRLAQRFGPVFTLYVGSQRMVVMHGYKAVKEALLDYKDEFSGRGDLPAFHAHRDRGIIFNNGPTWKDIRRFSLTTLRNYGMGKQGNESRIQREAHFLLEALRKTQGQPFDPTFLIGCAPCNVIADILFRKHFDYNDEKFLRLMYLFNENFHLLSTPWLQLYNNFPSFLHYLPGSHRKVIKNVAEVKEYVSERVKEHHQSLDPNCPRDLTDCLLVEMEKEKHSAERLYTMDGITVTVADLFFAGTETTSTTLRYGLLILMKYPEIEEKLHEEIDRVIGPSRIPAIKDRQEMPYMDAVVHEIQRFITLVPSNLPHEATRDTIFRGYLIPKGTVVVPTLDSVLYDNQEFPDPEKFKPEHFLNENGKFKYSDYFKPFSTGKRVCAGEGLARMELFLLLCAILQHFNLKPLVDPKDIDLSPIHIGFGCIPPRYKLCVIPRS
CYP2A6, sequence (P11509 whole entry): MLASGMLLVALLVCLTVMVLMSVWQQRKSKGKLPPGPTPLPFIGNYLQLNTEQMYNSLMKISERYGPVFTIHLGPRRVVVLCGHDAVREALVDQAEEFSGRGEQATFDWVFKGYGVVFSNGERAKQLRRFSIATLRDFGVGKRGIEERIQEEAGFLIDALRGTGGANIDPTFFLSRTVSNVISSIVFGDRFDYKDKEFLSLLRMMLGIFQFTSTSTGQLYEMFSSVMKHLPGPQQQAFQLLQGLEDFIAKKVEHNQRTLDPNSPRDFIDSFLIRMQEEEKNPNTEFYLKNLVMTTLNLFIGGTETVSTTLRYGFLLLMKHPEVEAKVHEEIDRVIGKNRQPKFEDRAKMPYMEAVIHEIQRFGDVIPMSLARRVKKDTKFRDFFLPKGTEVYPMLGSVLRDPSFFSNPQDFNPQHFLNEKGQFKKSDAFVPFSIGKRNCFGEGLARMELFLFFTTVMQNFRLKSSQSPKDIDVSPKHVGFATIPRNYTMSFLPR
CYP2D6, sequence (P10635 whole entry): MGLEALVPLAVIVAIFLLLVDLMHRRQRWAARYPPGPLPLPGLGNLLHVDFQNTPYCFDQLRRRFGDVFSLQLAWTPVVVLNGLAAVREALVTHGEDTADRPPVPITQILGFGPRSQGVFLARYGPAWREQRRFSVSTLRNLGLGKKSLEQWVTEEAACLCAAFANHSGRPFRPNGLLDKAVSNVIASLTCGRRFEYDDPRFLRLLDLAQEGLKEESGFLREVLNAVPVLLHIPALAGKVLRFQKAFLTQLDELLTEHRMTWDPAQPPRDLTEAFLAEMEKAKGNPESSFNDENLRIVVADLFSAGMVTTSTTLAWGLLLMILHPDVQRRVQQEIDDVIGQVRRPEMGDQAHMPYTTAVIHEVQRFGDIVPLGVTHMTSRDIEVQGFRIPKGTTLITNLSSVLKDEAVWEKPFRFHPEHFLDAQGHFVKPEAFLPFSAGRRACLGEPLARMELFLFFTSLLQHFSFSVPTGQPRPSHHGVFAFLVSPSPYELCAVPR

In turn, `COc1ccc(F)c(-n2ncc3c2COC[C@H]3NC(=O)c2ncn3c2CCCC3)c1Cl` (single isomer, unassigned) [Ex-9] had a hHEPs % remaining in “in vitro [1]” (% remaining at 120 min, 1 μM) of 87%. For the same compound, the half-life at 1 μM in the series “in vitro [1]” (human, hepatocytes) was > 10 h; in “in vitro [2]” (both, human, pooled liver microsomes), > 6.08 h. Further, the IC50 against CYP2C8 was > 30 µM; on CYP2E1, > 30 µM; against CYP2C19, > 30 µM; against CYP2B6 it was > 30 µM; at CYP3A4 (IC50 CYP3A4-M, substrate Midozolam) it was > 30 µM; on CYP3A4 (IC50 CYP3A4-T, substrate Testosterone) it was > 30 µM. Also, the IC50 against CYP2A6, on CYP2C9 and against CYP2D6 was > 30 µM each time. The “inhibition of human CYPs” value with Human CYPs was “No Inhibition”. Also, in “in vitro [2]” (% remaining at 60 min, 1 μM), the HLM % remaining stood at 100%.
